Reference: patent US20230085307A1, “PYRIDAZINONE COMPOUND AND HERBICIDE” (NISSAN CHEMICAL CORPORATION, priority 2019, published 2023)

Experiments:
chickweed [1] = assay: Test Example 5: herbicidal effect by foliage application, plastic box (Table 20, symbol P); type: in vivo, common chickweed (Stellaria media); conditions: foliage application, 320 g/ha
Outline: (§1)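 Post-emergence foliar test in sterilized diluvial soil. Compound applied as water-diluted emulsion at a predetermined rate to 14-day-old plants; evaluation at three weeks.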

wild oat [2] = assay: Test Example 4: herbicidal effect by soil treatment (Table 19, symbol I); type: in vivo, wild oat (Avena fatua); conditions: amount of applied herbicide 320 g/ha
Outline: (§2)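 Scoring uses the grading scale of an earlier test, three weeks post-application. Treatment consists of spraying a diluted emulsion formulation across the surface of sterilized diluvial soil in which seeds are buried near 1.5 cm deep; boxes are kept in a greenhouse between 25° C. and 30° C.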

rice flat sedge = assay: Test Example 3: herbicidal effect by foliage application, Wagner pot (Table 18, symbol E); type: in vivo, rice flat sedge (Cyperus iria); conditions: amount of applied herbicide 320 g/ha
Outline: (§3)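 Plants were sown in alluvial soil held under 0.1–0.5 cm standing water and grown 14 days in a greenhouse at 25–30 °C. An emulsifiable formulation, water-diluted to the set dose, was then sprayed onto the foliage, and effects were scored three weeks later using previously defined criteria.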

blackgrass [3] = assay: Test Example 5: herbicidal effect by foliage application, plastic box (Table 20, symbol J); type: in vivo, blackgrass (Alopecurus myosuroides); conditions: foliage application, 320 g/ha
Outline: as §1

Italian ryegrass [4] = assay: Test Example 4: herbicidal effect by soil treatment (Table 19, symbol K); type: in vivo, Italian ryegrass (Lolium multiflorum); conditions: amount of applied herbicide 320 g/ha
Outline: as §2

persian speedwell [5] = assay: Test Example 4: herbicidal effect by soil treatment (Table 19, symbol R); type: in vivo, Persian speedwell (Veronica persica); conditions: amount of applied herbicide 320 g/ha
Outline: as §2

southern crabgrass [6] = assay: Test Example 4: herbicidal effect by soil treatment (Table 19, symbol F); type: in vivo, southern crabgrass (Digitaria ciliaris); conditions: amount of applied herbicide 320 g/ha
Outline: as §2

redroot pigweed [7] = assay: Test Example 5: herbicidal effect by foliage application, plastic box (Table 20, symbol N); type: in vivo, redroot pigweed (Amaranthus retroflexus); conditions: foliage application, 320 g/ha
Outline: as §1

false cleavers [8] = assay: Test Example 4: herbicidal effect by soil treatment (Table 19, symbol Q); type: in vivo, false cleavers (Galium spurium); conditions: amount of applied herbicide 320 g/ha
Outline: as §2

blackgrass [9] = assay: Test Example 4: herbicidal effect by soil treatment (Table 19, symbol J); type: in vivo, blackgrass (Alopecurus myosuroides); conditions: amount of applied herbicide 320 g/ha
Outline: as §2

Chinese sprangletop = assay: Test Example 3: herbicidal effect by foliage application, Wagner pot (Table 18, symbol D); type: in vivo, chinese sprangletop (Leptochloa chinensis); conditions: amount of applied herbicide 320 g/ha
Outline: as §3

Italian ryegrass [10] = assay: Test Example 5: herbicidal effect by foliage application, plastic box (Table 20, symbol K); type: in vivo, Italian ryegrass (Lolium multiflorum); conditions: foliage application, 320 g/ha
Outline: as §1

lambsquarters [11] = assay: Test Example 5: herbicidal effect by foliage application, plastic box (Table 20, symbol O); type: in vivo, lambsquarters (Chenopodium album); conditions: foliage application, 320 g/ha
Outline: as §1

windgrass [12] = assay: Test Example 5: herbicidal effect by foliage application, plastic box (Table 20, symbol L); type: in vivo, windgrass (Apera spica-venti); conditions: foliage application, 320 g/ha
Outline: as §1

velvetleaf [13] = assay: Test Example 4: herbicidal effect by soil treatment (Table 19, symbol M); type: in vivo, velvetleaf (Abutilon theophrasti); conditions: amount of applied herbicide 320 g/ha
Outline: as §2

lambsquarters [14] = assay: Test Example 4: herbicidal effect by soil treatment (Table 19, symbol O); type: in vivo, lambsquarters (Chenopodium album); conditions: amount of applied herbicide 320 g/ha
Outline: as §2

chickweed [15] = assay: Test Example 4: herbicidal effect by soil treatment (Table 19, symbol P); type: in vivo, common chickweed (Stellaria media); conditions: amount of applied herbicide 320 g/ha
Outline: as §2

barnyard grass [16] = assay: Test Example 4: herbicidal effect by soil treatment (Table 19, symbol H); type: in vivo, barnyard grass (Echinochloa crus-galli); conditions: amount of applied herbicide 320 g/ha
Outline: as §2

windgrass [17] = assay: Test Example 4: herbicidal effect by soil treatment (Table 19, symbol L); type: in vivo, windgrass (Apera spica-venti); conditions: amount of applied herbicide 320 g/ha
Outline: as §2

persian speedwell [18] = assay: Test Example 5: herbicidal effect by foliage application, plastic box (Table 20, symbol R); type: in vivo, Persian speedwell (Veronica persica); conditions: foliage application, 320 g/ha
Outline: as §1

wild oat [19] = assay: Test Example 5: herbicidal effect by foliage application, plastic box (Table 20, symbol I); type: in vivo, wild oat (Avena fatua); conditions: foliage application, 320 g/ha
Outline: as §1

southern crabgrass [20] = assay: Test Example 5: herbicidal effect by foliage application, plastic box (Table 20, symbol F); type: in vivo, southern crabgrass (Digitaria ciliaris); conditions: foliage application, 320 g/ha
Outline: as §1

green foxtail [21] = assay: Test Example 5: herbicidal effect by foliage application, plastic box (Table 20, symbol G); type: in vivo, green foxtail (Setaria viridis); conditions: foliage application, 320 g/ha
Outline: as §1

velvetleaf [22] = assay: Test Example 5: herbicidal effect by foliage application, plastic box (Table 20, symbol M); type: in vivo, velvetleaf (Abutilon theophrasti); conditions: foliage application, 320 g/ha
Outline: as §1

barnyard grass [23] = assay: Test Example 5: herbicidal effect by foliage application, plastic box (Table 20, symbol H); type: in vivo, barnyard grass (Echinochloa crus-galli); conditions: foliage application, 320 g/ha
Outline: as §1

barnyard grass [24] = assay: Test Example 3: herbicidal effect by foliage application, Wagner pot (Table 18, symbol H); type: in vivo, barnyard grass (Echinochloa crus-galli); conditions: amount of applied herbicide 320 g/ha
Outline: as §3

false cleavers [25] = assay: Test Example 5: herbicidal effect by foliage application, plastic box (Table 20, symbol Q); type: in vivo, false cleavers (Galium spurium); conditions: foliage application, 320 g/ha
Outline: as §1

green foxtail [26] = assay: Test Example 4: herbicidal effect by soil treatment (Table 19, symbol G); type: in vivo, green foxtail (Setaria viridis); conditions: amount of applied herbicide 320 g/ha
Outline: as §2

redroot pigweed [27] = assay: Test Example 4: herbicidal effect by soil treatment (Table 19, symbol N); type: in vivo, redroot pigweed (Amaranthus retroflexus); conditions: amount of applied herbicide 320 g/ha
Outline: as §2

[28] = evaluated three weeks after application

## COc1cc(F)ccc1-c1sc2ccc(C)cc2c1-c1c(O)c(C)nn(C)c1=O [2-148]
Chickweed [1]; [28]
  herbicidal effect on P: chickweed (criteria 0-5): 5 (Herbicidal rate of 90% or more (almost completely withered))
Wild oat [2]
  I: wild oat, herbicidal effect rating: 0 (Herbicidal rate of 5% or less (almost no effect))
Rice flat sedge
  herbicidal effect on E: rice flat sedge: 5 (Herbicidal rate of 90% or more (almost completely withered))
Blackgrass [3]; [28]
  herbicidal effect on J: blackgrass (criteria 0-5): 4 (Herbicidal rate of 70% or more and less than 90%)
Italian ryegrass [4]
  K: Italian ryegrass, herbicidal effect rating: 1 (Herbicidal rate of 5% or more and less than 20%)
Persian speedwell [5]
  R: persian speedwell, herbicidal effect rating: 5 (Herbicidal rate of 90% or more (almost completely withered))
Southern crabgrass [6]
  F: southern crabgrass, herbicidal effect rating: 3 (Herbicidal rate of 40% or more and less than 70%)
Redroot pigweed [7]; [28]
  herbicidal effect on N: redroot pigweed (criteria 0-5): 5 (Herbicidal rate of 90% or more (almost completely withered))
False cleavers [8]
  Q: false cleavers, herbicidal effect rating: 5 (Herbicidal rate of 90% or more (almost completely withered))
Blackgrass [9]
  J: blackgrass, herbicidal effect rating: 3 (Herbicidal rate of 40% or more and less than 70%)
Chinese sprangletop
  herbicidal effect on D: Chinese sprangletop: 3 (Herbicidal rate of 40% or more and less than 70%)
Italian ryegrass [10]; [28]
  herbicidal effect on K: Italian ryegrass (criteria 0-5): 4 (Herbicidal rate of 70% or more and less than 90%)
Lambsquarters [11]; [28]
  herbicidal effect on O: lambsquarters (criteria 0-5): 4 (Herbicidal rate of 70% or more and less than 90%)
Windgrass [12]; [28]
  herbicidal effect on L: windgrass (criteria 0-5): 3 (Herbicidal rate of 40% or more and less than 70%)
Velvetleaf [13]
  M: velvetleaf, herbicidal effect rating: 3 (Herbicidal rate of 40% or more and less than 70%)
Lambsquarters [14]
  O: lambsquarters, herbicidal effect rating: 5 (Herbicidal rate of 90% or more (almost completely withered))
Chickweed [15]
  P: chickweed, herbicidal effect rating: 5 (Herbicidal rate of 90% or more (almost completely withered))
Barnyard grass [16]
  H: barnyard grass, herbicidal effect rating: 4 (Herbicidal rate of 70% or more and less than 90%)
Windgrass [17]
  L: windgrass, herbicidal effect rating: 0 (Herbicidal rate of 5% or less (almost no effect))
Persian speedwell [18]; [28]
  herbicidal effect on R: persian speedwell (criteria 0-5): 5 (Herbicidal rate of 90% or more (almost completely withered))
Wild oat [19]; [28]
  herbicidal effect on I: wild oat (criteria 0-5): 3 (Herbicidal rate of 40% or more and less than 70%)
Southern crabgrass [20]; [28]
  herbicidal effect on F: southern crabgrass (criteria 0-5): 5 (Herbicidal rate of 90% or more (almost completely withered))
Green foxtail [21]; [28]
  herbicidal effect on G: green foxtail (criteria 0-5): 5 (Herbicidal rate of 90% or more (almost completely withered))
Velvetleaf [22]; [28]
  herbicidal effect on M: velvetleaf (criteria 0-5): 4 (Herbicidal rate of 70% or more and less than 90%)
Barnyard grass [23]; [28]
  herbicidal effect on H: barnyard grass (criteria 0-5): 5 (Herbicidal rate of 90% or more (almost completely withered))
Barnyard grass [24]
  herbicidal effect on H: barnyard grass: 5 (Herbicidal rate of 90% or more (almost completely withered))
False cleavers [25]; [28]
  herbicidal effect on Q: false cleavers (criteria 0-5): 5 (Herbicidal rate of 90% or more (almost completely withered))

## CCCC(=O)Oc1c(C)nn(C)c(=O)c1-c1c(-c2ccc(OCC)cc2)sc2cc(OC)ccc12 [3-073]
Chickweed [1]; three weeks after application
  P: chickweed, herbicidal effect grade: 5 (Herbicidal rate of 90% or more (almost completely withered))
Wild oat [2]
  I: wild oat, herbicidal effect grade: 0 (Herbicidal rate of 5% or less (almost no effect))
Blackgrass [3]; three weeks after application
  J: blackgrass, herbicidal effect grade: 0 (Herbicidal rate of 5% or less (almost no effect))
Italian ryegrass [4]
  K: Italian ryegrass, herbicidal effect grade: 0 (Herbicidal rate of 5% or less (almost no effect))
Persian speedwell [5]
  R: persian speedwell, herbicidal effect grade: 4 (Herbicidal rate of 70% or more and less than 90%)
Southern crabgrass [6]
  F: southern crabgrass, herbicidal effect grade: 3 (Herbicidal rate of 40% or more and less than 70%)
Redroot pigweed [7]; three weeks after application
  N: redroot pigweed, herbicidal effect grade: 3 (Herbicidal rate of 40% or more and less than 70%)
False cleavers [8]
  Q: false cleavers, herbicidal effect grade: 2 (Herbicidal rate of 20% or more and less than 40%)
Blackgrass [9]
  J: blackgrass, herbicidal effect grade: 0 (Herbicidal rate of 5% or less (almost no effect))
Italian ryegrass [10]; three weeks after application
  K: Italian ryegrass, herbicidal effect grade: 0 (Herbicidal rate of 5% or less (almost no effect))
Lambsquarters [11]; three weeks after application
  O: lambsquarters, herbicidal effect grade: 2 (Herbicidal rate of 20% or more and less than 40%)
Windgrass [12]; three weeks after application
  L: windgrass, herbicidal effect grade: 0 (Herbicidal rate of 5% or less (almost no effect))
Velvetleaf [13]
  M: velvetleaf, herbicidal effect grade: 0 (Herbicidal rate of 5% or less (almost no effect))
Lambsquarters [14]
  O: lambsquarters, herbicidal effect grade: 3 (Herbicidal rate of 40% or more and less than 70%)
Chickweed [15]
  P: chickweed, herbicidal effect grade: 4 (Herbicidal rate of 70% or more and less than 90%)
Barnyard grass [16]
  H: barnyard grass, herbicidal effect grade: 3 (Herbicidal rate of 40% or more and less than 70%)
Windgrass [17]
  L: windgrass, herbicidal effect grade: 0 (Herbicidal rate of 5% or less (almost no effect))
Persian speedwell [18]; three weeks after application
  R: persian speedwell, herbicidal effect grade: 5 (Herbicidal rate of 90% or more (almost completely withered))
Wild oat [19]; three weeks after application
  I: wild oat, herbicidal effect grade: 0 (Herbicidal rate of 5% or less (almost no effect))
Southern crabgrass [20]; three weeks after application
  F: southern crabgrass, herbicidal effect grade: 2 (Herbicidal rate of 20% or more and less than 40%)
Green foxtail [26]
  G: green foxtail, herbicidal effect grade: 3 (Herbicidal rate of 40% or more and less than 70%)
Green foxtail [21]; three weeks after application
  G: green foxtail, herbicidal effect grade: 0 (Herbicidal rate of 5% or less (almost no effect))
Velvetleaf [22]; three weeks after application
  M: velvetleaf, herbicidal effect grade: 3 (Herbicidal rate of 40% or more and less than 70%)
Barnyard grass [23]; three weeks after application
  H: barnyard grass, herbicidal effect grade: 0 (Herbicidal rate of 5% or less (almost no effect))
False cleavers [25]; three weeks after application
  Q: false cleavers, herbicidal effect grade: 4 (Herbicidal rate of 70% or more and less than 90%)
Redroot pigweed [27]
  N: redroot pigweed, herbicidal effect grade: 4 (Herbicidal rate of 70% or more and less than 90%)
